Measurements published in publication PMC7699199, “Identification and Validation of Carbonic Anhydrase II as the First Target of the Anti-Inflammatory Drug Actarit” (Biomolecules, 2020).

Biological target: T1, carbonic anhydrase II (CAII) (Homo sapiens, UniProt P00918)
T1 construct: gene CA2
Test: Wilbur-Anderson electrometric CO2 hydration assay with recombinant human CAII
Format: biochemical

- IC50: 422 nM
SMILES: CC(=O)Nc1ccc(CC(=O)O)cc1 [actarit]
